A value given as a limit tells only on which side of the number the result lay.

T1 sequence (O75762 whole entry): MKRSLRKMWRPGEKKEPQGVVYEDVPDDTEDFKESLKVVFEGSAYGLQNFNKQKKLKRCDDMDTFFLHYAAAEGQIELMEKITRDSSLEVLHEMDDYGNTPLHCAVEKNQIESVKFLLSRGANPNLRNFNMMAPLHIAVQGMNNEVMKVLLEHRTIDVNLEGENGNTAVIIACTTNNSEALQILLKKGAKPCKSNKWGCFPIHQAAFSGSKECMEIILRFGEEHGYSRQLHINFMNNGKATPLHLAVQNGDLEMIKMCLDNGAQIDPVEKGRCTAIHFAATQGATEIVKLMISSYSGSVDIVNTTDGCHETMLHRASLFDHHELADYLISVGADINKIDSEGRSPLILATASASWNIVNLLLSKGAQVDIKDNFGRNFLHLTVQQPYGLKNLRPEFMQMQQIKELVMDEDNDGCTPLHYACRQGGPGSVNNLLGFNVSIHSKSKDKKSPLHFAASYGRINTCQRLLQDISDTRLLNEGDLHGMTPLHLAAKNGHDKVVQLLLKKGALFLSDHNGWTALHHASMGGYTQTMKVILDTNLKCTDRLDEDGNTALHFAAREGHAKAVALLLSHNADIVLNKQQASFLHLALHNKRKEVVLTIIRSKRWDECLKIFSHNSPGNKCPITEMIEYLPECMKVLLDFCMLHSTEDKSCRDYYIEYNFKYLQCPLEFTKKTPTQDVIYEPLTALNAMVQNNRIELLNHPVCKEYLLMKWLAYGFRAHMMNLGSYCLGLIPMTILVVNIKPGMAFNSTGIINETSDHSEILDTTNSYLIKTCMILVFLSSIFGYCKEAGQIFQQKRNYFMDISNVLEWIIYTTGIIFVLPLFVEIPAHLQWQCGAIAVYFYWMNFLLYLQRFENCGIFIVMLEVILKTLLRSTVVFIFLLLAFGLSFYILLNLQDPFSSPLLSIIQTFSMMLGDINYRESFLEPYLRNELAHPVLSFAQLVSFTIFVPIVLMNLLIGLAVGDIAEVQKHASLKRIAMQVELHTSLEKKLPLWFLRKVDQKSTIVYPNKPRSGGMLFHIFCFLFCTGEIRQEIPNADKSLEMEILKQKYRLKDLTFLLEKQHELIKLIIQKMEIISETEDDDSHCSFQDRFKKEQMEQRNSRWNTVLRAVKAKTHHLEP

The first assay concerns the target T1, human TRPA1 (Homo sapiens, UniProt O75762).
T1 construct: expressed in transfected cells
As to the kind of experiment: Cell-based functional intracellular calcium ([Ca2+]i) assay, Fluo-4/Fluo-8, FlexStation, challenge with reference TRPA1 agonist (FFA, AITC or 4-HNE).
Settings: not given
Here is the method:
A stable HEK293 cell line that expresses human TRPA1 in an inducible manner was employed in this assay. […] The expression of TRPA1 was induced by including 1 μg/ml doxycycline in the culture medium. For the induced cells, ruthenium red (5 μM) was also added to minimize the constitutive TRPA1 channel activity and cells were used 14-18 hrs after induction. To measure [Ca^2+]i changes, cells were seeded in wells of 96-well plates at ˜100,000 cells/well and grown for 14-18 hrs to reach confluency. To prevent cell loss from subsequent washing, the wells were treated with 20 μg/ml polyornithine (MW>30,000, Sigma, St Louis, Mo.) for >15 min and rinsed once with Hank's balanced salt solution without Mg^2+ and Ca^2+. […] In some experiments, Fluo-8-AM was used instead of Fluo-4-AM as the calcium-sensitive fluorescent probe. Probenecid (2 mM) was included in all solutions to prevent the leakage of Fluo-4 or Fluo-8 from the cells. At the end of the incubation, cells were washed three times with ECS and placed in 80 μL of the same solution. Fluorescence changes were measured using a fluid handling integrated fluorescence plate reader, FlexStation (Molecular Devices, Sunnyvale, Calif.). Stock solutions of test compounds were initially solubilized in 100% DMSO and then serially diluted to achieve the desired final concentration. […] Drugs were diluted into ECS at 2× or 3× the desired final concentrations and delivered to the sample plate by an integrated robotic 8-channel pipettor at preprogrammed time points. […] Experiments were performed at 20-25° C. For certain experiments, 0.1% BSA was included with the cells and test compounds.
The kinetic data obtained at each test concentration of drug represents a series of fluorescent intensities as a function of time.
Using a sequential addition protocol, test compounds were initially applied to the cells loaded with Fluo-4 or Fluo-8 and fluorescence changes in each well monitored for 2.5 min. The plate was read again in a kinetic mode after a 15-30 min incubation with the test compounds after obtaining baseline values (about 30 s) and subsequent addition of challenge with a reference TRPA1 agonist. Reference TRPA1 agonists in testing each compound included at least one of flufenamic acid (FFA), allyl isothiocyanate (AITC) and 4-hydroxynonenal (4-HNE).
Antagonist activity can be expressed in terms of IC50 with respect to TRPA1 and agonist activity can be expressed in terms of EC50 with respect to TRPA1.
(In general: A change in cytosolic calcium serves as a functional read-out for many receptors and channels.)
Consider `O=C(c1cc(-c2ccncc2)n(-c2ccc(F)c(F)c2)n1)N1CCC2(CC1)OCCO2` [Compound 151], for which the IC50 is greater than 25 µM. With `O=C(c1cc(-c2ccncc2)n(-c2ccc(F)cc2F)n1)N1CCC2(CC1)OCCO2` [Compound 154], the IC50 is greater than 25 µM.

Consider `O=C(c1cc(-c2ccncc2)n(-c2ccc3c(c2)OCO3)n1)N1CCC2(CC1)OCCO2` [Compound 157], for which the IC50 is greater than 25 µM.

`O=C(c1cc(-c2ccncc2)n(-c2cc(C(F)(F)F)cc(C(F)(F)F)c2)n1)N1CCC2(CC1)OCCO2` [Compound 160]: the IC50 is greater than 25 µM. On to `O=C(c1cc(-c2ccncc2)n(-c2ccc(C(F)(F)F)c(F)c2)n1)N1CCC2(CC1)OCCO2` [Compound 163], for which the IC50 lay within 5 to 25 µM. `O=C(c1cc(-c2ccncc2)n(-c2ccc(C(F)(F)F)nc2)n1)N1CCC2(CC1)OCCO2` [Compound 166]: the IC50 is greater than 25 µM. Consider `O=C(c1cc(-c2ccncc2)n(-c2cnccn2)n1)N1CCC2(CC1)OCCO2` [Compound 169], for which the IC50 was greater than 25 µM. Consider `O=C(c1cc(-c2cccnc2)n(-c2ccc(C(F)(F)F)c(F)c2)n1)N1CCC2(CC1)C(=O)NC(=O)N2c1ccc(F)cc1` [Compound 185], for which the IC50 lay within 5 to 25 µM.

For `O=C(c1cc(-c2cccnc2)n(-c2ccc(C(F)(F)F)c(F)c2)n1)N1CCN2C(=O)OC3(CC3)[C@@H]2C1` [Compound 192], the IC50 is 0.001 to 5 µM. For the compound `O=C(c1cc(-c2cccnc2)n(-c2ccc(C(F)(F)F)c(F)c2)n1)N1C2CCC1CC1(C2)C(=O)NCN1c1ccc(F)cc1` (centres unmarked) [Compound 193], the IC50 is 0.001 to 5 µM.

The assay is the same for the next values; noted with them: HEK293 cells expressing human TRPA1; IC50 class after addition of reference TRPA1 agonist (FFA, AITC or 4-HNE); read-out: human TRPA1-HEK Activity.
As to `O=C(c1cc(-c2ccncc2)n(-c2ccc(F)c(F)c2)n1)N1CCC(n2c(=O)[nH]c3ccccc32)CC1` [Compound 150], the IC50 was in the range of 5 to 25 µM. With `O=C(c1cc(-c2ccncc2)n(-c2ccc(F)cc2F)n1)N1CCC2(CC1)C(=O)NCN2c1ccccc1` [Compound 152], the IC50 was greater than 25 µM.

On to `O=C(c1cc(-c2ccncc2)n(-c2ccc(F)cc2F)n1)N1CCC(n2c(=O)[nH]c3ccccc32)CC1` [Compound 153], for which the IC50 was greater than 25 µM. Consider `O=C(c1cc(-c2ccncc2)n(-c2ccc3c(c2)OCO3)n1)N1CCC2(CC1)C(=O)NCN2c1ccccc1` [Compound 155], for which the IC50 was greater than 25 µM. For the compound `O=C(c1cc(-c2ccncc2)n(-c2ccc3c(c2)OCO3)n1)N1CCC(n2c(=O)[nH]c3ccccc32)CC1` [Compound 156], the IC50 was greater than 25 µM.

In the case of `O=C(c1cc(-c2ccncc2)n(-c2cc(C(F)(F)F)cc(C(F)(F)F)c2)n1)N1CCC2(CC1)C(=O)NCN2c1ccccc1` [Compound 158], the IC50 fell in the range of 5 to 25 µM.

On to `O=C(c1cc(-c2ccncc2)n(-c2cc(C(F)(F)F)cc(C(F)(F)F)c2)n1)N1CCC(n2c(=O)[nH]c3ccccc32)CC1` [Compound 159], for which the IC50 was in the range of 5 to 25 µM. For the compound `O=C(c1cc(-c2ccncc2)n(-c2ccc(C(F)(F)F)c(F)c2)n1)N1CCC2(CC1)C(=O)NCN2c1ccccc1` [Compound 161], the IC50 lay within 5 to 25 µM.

`O=C(c1cc(-c2ccncc2)n(-c2ccc(C(F)(F)F)c(F)c2)n1)N1CCC(n2c(=O)[nH]c3ccccc32)CC1` [Compound 162]: the IC50 fell in the range of 5 to 25 µM. Still for that read-out and setting: for `O=C(c1cc(-c2ccncc2)n(-c2ccc(C(F)(F)F)nc2)n1)N1CCC2(CC1)C(=O)NCN2c1ccccc1` [Compound 164] the value was 5 to 25 µM; for `O=C(c1cc(-c2ccncc2)n(-c2ccc(C(F)(F)F)nc2)n1)N1CCC(n2c(=O)[nH]c3ccccc32)CC1` [Compound 165], greater than 25 µM. Same read-out and setting: for `O=C(c1cc(-c2ccncc2)n(-c2cnccn2)n1)N1CCC2(CC1)C(=O)NCN2c1ccccc1` [Compound 167] the value was 5 to 25 µM; for `O=C(c1cc(-c2ccncc2)n(-c2cnccn2)n1)N1CCC(n2c(=O)[nH]c3ccccc32)CC1` [Compound 168], 5 to 25 µM; for `O=C(c1cc(-c2ccncc2)n(-c2ccccc2)n1)N1CCC2(CC1)OCc1ccccc12` [Compound 170], greater than 25 µM. With `O=C1OC2(CCN(C(=O)c3cc(-c4ccncc4)n(-c4ccccc4)n3)CC2)c2ccccc21` [Compound 171], the IC50 was greater than 25 µM. On the same count and under the same terms, for `Cn1c(=O)n(C2CCN(C(=O)c3cc(-c4ccncc4)n(-c4ccccc4)n3)CC2)c2ccccc21` [Compound 172] the value was greater than 25 µM. On the same count and under the same terms, for `O=C(c1cc(-c2ccncc2)n(-c2ccccc2)n1)N1CCC(N2C(=O)OC[C@H]2c2ccccc2)CC1` [Compound 173] the value was greater than 25 µM; for `CN1C(=O)NC2(CCN(C(=O)c3cc(-c4ccncc4)n(-c4ccccc4)n3)CC2)C1=O` [Compound 174], greater than 25 µM; for `O=C(c1cc(-c2ccncc2)n(-c2cc(F)c(F)c(F)c2)n1)N1CCC(n2c(=O)[nH]c3cc(C(F)(F)F)ccc32)CC1` [Compound 176], 5 to 25 µM. As to `O=C(c1cc(-c2ccncc2)n(-c2ccc(C(F)(F)F)cc2)n1)N1CCC(n2c(=O)[nH]c3ccc(F)c(F)c32)CC1` [Compound 177], the IC50 lay in the range of 0.001 to 5 µM.

`O=C(c1cc(-c2ccncc2)n(-c2ccc(C(F)(F)F)cc2)n1)N1CCC(n2c(=O)[nH]c3cc(C(F)(F)F)ccc32)CC1` [Compound 178]: the IC50 is 5 to 25 µM. Take `O=C(c1cc(-c2ccncc2)n(-c2ccc(C(F)(F)F)c(F)c2)n1)N1CCC2(CC1)C(=O)NCN2c1ccc(OC(F)(F)F)cc1` [Compound 179]: the IC50 is greater than 25 µM. As for `O=C(c1cc(-c2cccnc2)n(-c2ccc(C(F)(F)F)c(F)c2)n1)N1CCC2(CC1)C(=O)NCN2c1ccc(F)c(F)c1` [Compound 181], the IC50 is 0.001 to 5 µM. Regarding `O=C(c1cc(-c2cccnc2)n(-c2ccc(C(F)(F)F)c(F)c2)n1)N1CCC(n2c(=S)[nH]c3ccc(F)c(F)c32)CC1` [Compound 182], the IC50 was 0.001 to 5 µM. For `O=C(c1cc(-c2cccnc2)n(-c2ccc(C(F)(F)F)c(F)c2)n1)N1CCC2(CC1)C(=O)NCN2c1ccc(I)cc1` [Compound 183], the IC50 was greater than 25 µM. As to `O=C(c1cc(-c2cccnc2)n(-c2ccc(C(F)(F)F)c(F)c2)n1)N1CCC2(CC1)C(=O)NCN2c1ccc(Br)cc1` [Compound 184], the IC50 was greater than 25 µM.

Take `O=C(c1cc(-c2cccnc2)n(-c2ccc(C(F)(F)F)c(F)c2)n1)N1CCC2(CC1)C(=O)NCN2c1cc(F)c(F)c(F)c1` [Compound 186]: the IC50 lay in the range of 0.001 to 5 µM. On to `O=C(c1cc(-c2cccnc2)n(-c2ccc(C(F)(F)F)c(F)c2)n1)N1CCC2(CC1)C(=O)NCN2c1ccc(F)c(C(F)(F)F)c1` [Compound 187], for which the IC50 was in the range of 0.001 to 5 µM.

`O=C(c1cc(-c2cccnc2)n(-c2ccc(C(F)(F)F)c(F)c2)n1)N1CCC2(CC1)C(=O)NCN2c1ccc(OC(F)F)cc1` [Compound 188]: the IC50 is 0.001 to 5 µM. With `O=C(c1cc(-c2cccnc2)n(-c2ccc(C(F)(F)F)c(F)c2)n1)N1CCC2(CC1)C(=O)NCN2c1ccc(F)c(Cl)c1` [Compound 189], the IC50 fell in the range of 0.001 to 5 µM.

Regarding `N#Cc1ccc2[nH]c(=O)n(C3CCN(C(=O)c4cc(-c5cccnc5)n(-c5ccc(C(F)(F)F)c(F)c5)n4)CC3)c2c1` [Compound 190], the IC50 fell in the range of 0.001 to 5 µM. With `O=C(c1cc(-c2cccnc2)n(-c2ccc(C(F)(F)F)c(F)c2)n1)N1CCN2C(=O)OC[C@@H]2C1` [Compound 191], the IC50 is 0.001 to 5 µM.

Take `CC1CC(n2c(=O)[nH]c3ccc(F)c(F)c32)CC(C)N1C(=O)c1cc(-c2cccnc2)n(-c2ccc(C(F)(F)F)c(F)c2)n1` (centres unmarked) [Compound 194]: the IC50 is 5 to 25 µM. `Cc1cc(N2CNC(=O)C23CCN(C(=O)c2cc(-c4cccnc4)n(-c4ccc(C(F)(F)F)c(F)c4)n2)CC3)cc(C)c1F` [Compound 195]: the IC50 lay within 0.001 to 5 µM. On to `O=C(c1cc(-c2cccnc2)n(-c2ccc(C(F)(F)F)c(F)c2)n1)N1CCC(n2c(=O)[nH]c3ccc(F)c(C(F)(F)F)c32)CC1` [Compound 196], for which the IC50 was 0.001 to 5 µM. In the case of `COc1cc(F)ccc1N1CNC(=O)C12CCN(C(=O)c1cc(-c3cccnc3)n(-c3ccc(C(F)(F)F)c(F)c3)n1)CC2` [Compound 197], the IC50 is 5 to 25 µM. For `O=C(c1cc(-c2cccnc2)n(-c2cc(F)c(F)c(F)c2)n1)N1CCC2(CC1)C(=O)NCN2c1ccc(I)cc1` [Compound 200], the IC50 was in the range of 0.001 to 5 µM.

For `O=C(c1cc(-c2cccnc2)n(-c2cc(F)c(F)c(F)c2)n1)N1CCC2(CC1)C(=O)NCN2c1ccc(Br)cc1` [Compound 201], the IC50 lay within 0.001 to 5 µM. Same read-out and setting: for `Cc1c(F)ccc2[nH]c(=O)n(C3CCN(C(=O)c4cc(-c5cccnc5)n(-c5cc(F)c(F)c(F)c5)n4)CC3)c12` [Compound 202] the value was 0.001 to 5 µM. As for `CC1CC(n2c(=O)[nH]c3ccc(F)c(F)c32)CC(C)N1C(=O)c1cc(-c2cccnc2)n(-c2cc(F)c(F)c(F)c2)n1` (centres unmarked) [Compound 203], the IC50 was greater than 25 µM.

Values taken from patent US9951046B2, “TRPA1 modulators” (Algomedix, Inc., priority 2014, dated 2018).
